# Laboratory results from paper PMC8043168, “Tribolium castaneum defensin 1 kills Moraxella catarrhalisin an in vitro infection model but does not harm commensal bacteria” (Virulence, 2021).
# Bridge positions count the residues as written; N and C are the ends.
# Experiments:
# [1] = tested on: M. catarrhalis in human blood-derived macrophages (BDMs); assay: Colony forming unit assay in blood-derived macrophages infected with M. catarrhalis; type: cell-based, Moraxella catarrhalis; settings: MOI 0.5 or 1; defensin 1 12.5 µM or sarcotoxin 1 C 0.39 µM added 1 or 5 h post-infection; further 16 h; lysis with 1% saponin, plating; vs assays without peptide
# Description: The absolute number of bacterial cells after treatment with defensin 1 or sarcotoxin 1 C was determined by counting the colony forming units (CFUs). M. catarrhalis overnight cultures prepared as described above were grown to the mid-exponential phase (~5 x 10^8 cells/ml) in BHI medium before dilution to 2 × 10^7 cells/ml in PBS containing 0.15% gelatin, and blood-derived macrophages (BDMs) were infected with a multiplicity of infection (MOI) of 0.5 or 1. […] Cells were then incubated for an additional 16 h at 37°C and 5% CO2 and then lysed with 1% saponin. Lysates were plated on sheep blood agar and cultivated for a further 15 h at 37°C and 5% CO2 before manual counting of the colonies on each plate.
# All donors gave informed written consent (Ethics approval number: 161/17). Human BDMs were cultured as previously described. Briefly, primary human monocytes were isolated from donor buffy coats by selection for CD14^+ cells using CD14 Microbeads (Miltenyi Biotec, Bergisch Gladbach, Germany). Monocytes were grown in RPMI1640 medium with 1% human AB serum at 37°C and 5% CO2 on ultra-low attachment plates (Sigma-Aldrich, Munich, Germany). After 6 days, differentiated macrophages were detached, seeded at the desired density and incubated for 24 h before further analysis.
# M. catarrhalis = assay: AMP inhibitory testing without macrophages, dilution and plating (Figure S1); type: cell-based, Moraxella catarrhalis
# Description: Colonies of M. catarrhalis were grown on sheep blood agar plates for 12 h at 37°C and 5% CO2 before transfer to brain heart infusion (BHI) medium (Carl Roth, Karlsruhe, Germany) at an initial concentration of 1.6 × 10^7 cells/ml (OD600 = 0.08) as determined using an Ultraspec 10 cell densitometer (Amersham BioSciences, Little Chalfont, UK). Bacteria were cultivated in a shaking incubator at 37°C until the concentration reached 1.2 × 10^8 cells/ml (OD600 = 0.6) and then diluted to 2 × 10^6 cells/ml (OD600 = 0.011). To establish the optimal concentration ranges for AMP activity, defensin 1 was prepared as a two-fold dilution series from 12.5 µM to 1.56 µM and was added to the bacterial cultures, which were incubated as above for a further 16 h. Untreated cultures were used as controls. The OD600 was measured automatically at 30-min intervals using an Infinite M200 Pro plate reader (Tecan Life Sciences, Männedorf, Switzerland). […] They were cultivated for a further 15 h at 37°C and 5% CO2 in serial dilution before manual counting of the colonies on each plate.
# [2] = tested on: BDMs infected with M. catarrhalis; assay: qRT-PCR of cytokine mRNA in infected BDMs; type: cell-based, human; settings: defensin 1 12.5 µM given 1 or 5 h after infection, MOI 0.5 or 1; collected 16 h post-infection
# Description: BDMs were infected with M. catarrhalis as described above and the cells and supernatant were collected 16 h post-infection. Total RNA was isolated by phenol-chloroform extraction followed by reverse transcription using the High-Capacity RNA-to-cDNA kit (Thermo Fisher Scientific, Waltham, MA, USA). Quantitative real-time PCR (qRT-PCR) was performed with the following specific primer pairs to measure the expression of IL-1β (forward primer 5′-AGCTCGCCAGTGAAATGATGG-3′ and reverse primer 5′-CAGGTCCTGGAAGGAGCACTTC-3′), IL-8 (forward primer 5′-ACTGAGAGTGATTGAGAGTGGAC-3′ and reverse primer 5′-AACCCTCTGCACCCAGTTTTC-3′), and RPS18 (forward primer 5′-GCGGCGGAAAATAGCCTTTG-3′ and reverse primer 5′-GATCACACGTCCACCTCATC-3′).
# [3] = tested on: BDMs infected with M. catarrhalis; assay: Multiplex ELISA of cytokines in BDM supernatant after infection; type: cell-based, human; settings: defensin 1 12.5 µM, 1 or 5 h post-infection, MOI 0.5 or 1
# Description: The presence of cytokines in the BDM supernatant after infection and treatment with 12.5 µM defensin 1 was assessed using the MAGPIX Multiplex ELISA (Luminex, Austin, TX, USA). BDM supernatants were prepared as recommended for the MAGPIX system. The cytokine panel comprised MIP1-α, MCP1, IL-1β, IL-6, IL-8, IL-10, IL-12p70, IL-23, LAP and TNF-α.
# Statistical interpretation of the multiplex ELISA data required the incorporation of data points outside the detection range and adjustments for the effect of parallel technical measurements from the same biological samples. We therefore used the Hodges and Lehmann nonparametric aligned ranks test to compare cytokine secretion by treatment time within treatment groups and between the following control and treatment groups: […]
# E. coli = assay: Growth kinetics of commensal E. coli; type: cell-based, Escherichia coli; settings: liquid LB medium, 37°C, OD600 every 30 min; defensin 1 12.5 µM, sarcotoxin 1 C 0.39 µM
# Description: For the analysis of commensal bacteria, E. faecalis was grown on Columbia agar plates or in liquid BHI medium, and E. coli was grown on McConkey agar or in liquid LB medium. After overnight culture on agar plates at 37°C and 5% CO2, both species were transferred to liquid medium at an initial OD600 of 0.005. The cultures were maintained in a shaking incubator at 37°C, and the OD600 was measured automatically at 30-min intervals as above.
# macrophages = settings: cited from earlier work
# Text: Defensin 1 limited the expressio ...
# Streptococcus pneumoniae = settings: cited from earlier work
# Text: Among the 23 AMPs we tested, only defensin 1 was previously found to be effective against the Gram-positive pathogen Streptococcus pneumoniae. It is unclear whether the eﬃcacy of defensin 1 indeed lies in the structure of the peptide and whether other AMPs with different structures would also show activity against M. catarrhalis. We therefore also investigated L. sericata sarcotoxin 1 C, which has a linear α-helical structure without disulfide bridges.
# [4] = up to a concentration of 100 µM; cited from earlier work
substance,measurement,setting,value
"H-VTCDLLSAEAKGVKVNHAACAAHCLLKRKRGGYCNKRRICVCRN-OH (disulfide 3-34, 20-40, 24-42 (inferred)) [Defensin 1]",M. catarrhalis CFU count (bacterial burden) in infection assay of primary BDMs,[1],reduced the bacterial burden
same,effect on bacterial growth upon dilution of the AMP by plating,"M. catarrhalis; defensin 1 12.5 µM or sarcotoxin 1 C 0.39 µM in BHI, diluted in PBS with 0.15% gelatin, plated on sheep blood agar, 15 h, Figure S1",efficiently killed the bacteria
same,bactericidal or bacteriostatic capacity,M. catarrhalis; growth of M. catarrhalis after dilution of the AMP,bactericidal
same,"IL-1β expression (mRNA, qRT-PCR)",[2],limited the expression
same,"IL-8 expression (mRNA, qRT-PCR)",[2],limited the expression
same,bacteria-induced secretion of IL-1β,[3],inhibited
same,bacteria-induced secretion of IL-10,[3],inhibited
same,bacteria-induced secretion of IL-12p70,[3],inhibited
same,bacteria-induced secretion of IL-23,[3],inhibited
same,effect on growth of E. coli,E. coli,minor growth delay
same,toxicity toward macrophages,macrophages,nontoxic
same,effective against Streptococcus pneumoniae,Streptococcus pneumoniae,effective
same,hemolytic activity,[4],minimal hemolytic activity
